The molecules below were run against T1, Nav 1.7 (Homo sapiens, UniProt Q15858) (assay: Whole-cell voltage clamp electrophysiology, automated patch clamp (marker c in Table of Examples)). Conditions: marker c = Automated patch clamp data; read-out: Nav 1.7 activity.
T1 construct: expressed in transfected cells
Format: cell-based
Excerpt: a.IonWork Quattro data, b=Manual patch clamp data, c=Automated patch clamp data M=Method
Whole-Cell Voltage Clamp Electrophysiology Assay
Patch-clamp electrophysiology is considered the gold standard technique for investigation of ion channel function and pharmacology. Using this method, sodium channel currents can be measured in cells, which stably (or transiently) express the sodium channel subtype of interest. Application of compounds during such experiments provides a functional measure of the activity and potency of compounds affecting the ion channel of interest.
Electrophysiological studies can be performed using automated or manual patch-clamp techniques. Automated patch-clamp instruments suitable for this work include the Ion Works HT (MDS), Ion Works Quattro (MDS), PatchLiner (Nanion technologies), Port-A-Patch (Nanion technologies), QPatch (Sophion) or any other suitable platform.
For recording in automated patch-clamp instruments, cells expressing the voltage-gated sodium channel subtype of interest are dispensed in appropriate chips (plates with more than one recording chambers each containing one or more apertures to generate whole-cell patches), as provided by the manufacturer. Typically, the whole-cell perforated patch configuration is used for probing the pharmacology of compounds in automated patch-clamp electrophysiology on sodium channels. Extracellular and intracellular buffers for such experiments are composed according to the literature, or according to the instructions provided by the manufacturer of the instruments. Test solutions, which contain the compounds to be tested, are applied to the cells expressing the sodium channel of interest by a pipetting system, typically integrated into the robots.
A suitable voltage stimulus protocol is used to activate voltage-gated sodium channel proteins of interest. A typical stimulus protocol may consist of sweeps of sequential voltage pulses starting from a holding potential (i.e. −65 mV), to a more positive and depolarising test pulse potential (i.e. −10 mV) and finally to a more negative and hyperpolarising potential (i.e. −100 mV). According to the biophysics of the voltage-gated ion channel of interest and interest in channel configuration the voltages and durations of the pulses as well as the overall frequency of sweeps applied might vary. Accordingly, a stimulus protocol was designed to assess compounds due to their potential to block NaV1.7 channels primarily in inactivated state. Selectivity over other voltage-gated sodium channel members was assessed by protocols that reflect the native function of the channels (i.e. heart rate or firing of neurons).

T1 sequence (Q15858 whole entry): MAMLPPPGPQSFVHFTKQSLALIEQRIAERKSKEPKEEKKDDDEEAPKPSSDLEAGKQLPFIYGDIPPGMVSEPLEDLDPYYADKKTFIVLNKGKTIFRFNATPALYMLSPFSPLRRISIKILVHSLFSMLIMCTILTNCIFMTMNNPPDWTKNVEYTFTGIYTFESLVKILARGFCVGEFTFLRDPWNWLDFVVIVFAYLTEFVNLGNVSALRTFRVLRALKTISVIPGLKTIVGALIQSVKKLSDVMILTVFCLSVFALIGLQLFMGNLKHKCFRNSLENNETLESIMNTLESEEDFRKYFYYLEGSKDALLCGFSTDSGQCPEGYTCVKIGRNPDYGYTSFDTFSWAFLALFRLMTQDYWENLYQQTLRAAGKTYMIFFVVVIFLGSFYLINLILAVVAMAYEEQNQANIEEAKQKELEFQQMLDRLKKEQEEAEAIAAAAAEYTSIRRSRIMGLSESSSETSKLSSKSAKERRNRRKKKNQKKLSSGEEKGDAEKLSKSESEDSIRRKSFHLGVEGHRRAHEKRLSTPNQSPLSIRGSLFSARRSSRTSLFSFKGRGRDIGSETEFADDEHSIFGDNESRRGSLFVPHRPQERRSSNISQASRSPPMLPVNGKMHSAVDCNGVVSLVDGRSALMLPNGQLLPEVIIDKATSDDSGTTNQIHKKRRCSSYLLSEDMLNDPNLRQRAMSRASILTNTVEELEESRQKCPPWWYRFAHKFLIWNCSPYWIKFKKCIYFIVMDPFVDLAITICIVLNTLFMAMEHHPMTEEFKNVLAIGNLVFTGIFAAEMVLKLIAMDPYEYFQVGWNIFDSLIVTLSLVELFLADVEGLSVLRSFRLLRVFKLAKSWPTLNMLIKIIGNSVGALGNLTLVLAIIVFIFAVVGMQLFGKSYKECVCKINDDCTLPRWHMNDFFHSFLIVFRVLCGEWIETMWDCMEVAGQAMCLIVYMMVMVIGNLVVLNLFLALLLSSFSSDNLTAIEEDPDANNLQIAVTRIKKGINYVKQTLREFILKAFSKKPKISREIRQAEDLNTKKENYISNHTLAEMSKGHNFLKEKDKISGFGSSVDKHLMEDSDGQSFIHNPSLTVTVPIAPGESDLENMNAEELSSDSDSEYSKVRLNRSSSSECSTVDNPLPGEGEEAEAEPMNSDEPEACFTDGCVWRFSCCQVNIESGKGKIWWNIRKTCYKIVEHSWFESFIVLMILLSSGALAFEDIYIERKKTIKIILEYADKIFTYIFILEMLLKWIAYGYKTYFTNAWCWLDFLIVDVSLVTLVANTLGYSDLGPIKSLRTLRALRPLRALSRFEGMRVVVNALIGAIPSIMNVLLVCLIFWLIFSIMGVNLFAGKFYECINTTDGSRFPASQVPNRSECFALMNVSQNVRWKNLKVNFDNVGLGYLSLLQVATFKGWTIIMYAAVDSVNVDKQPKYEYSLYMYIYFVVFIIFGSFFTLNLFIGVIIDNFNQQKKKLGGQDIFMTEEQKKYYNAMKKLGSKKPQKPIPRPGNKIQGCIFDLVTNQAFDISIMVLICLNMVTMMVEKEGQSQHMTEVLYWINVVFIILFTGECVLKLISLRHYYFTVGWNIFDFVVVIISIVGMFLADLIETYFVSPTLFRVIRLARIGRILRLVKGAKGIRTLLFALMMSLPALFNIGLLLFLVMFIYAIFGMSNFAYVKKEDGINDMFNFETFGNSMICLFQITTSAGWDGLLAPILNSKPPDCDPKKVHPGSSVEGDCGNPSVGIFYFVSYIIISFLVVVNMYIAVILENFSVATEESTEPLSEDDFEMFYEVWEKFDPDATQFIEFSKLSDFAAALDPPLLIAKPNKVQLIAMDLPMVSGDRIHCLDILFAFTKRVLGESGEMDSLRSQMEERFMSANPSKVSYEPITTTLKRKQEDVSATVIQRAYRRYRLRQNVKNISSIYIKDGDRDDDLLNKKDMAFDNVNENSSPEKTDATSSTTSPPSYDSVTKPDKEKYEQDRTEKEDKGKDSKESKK

Compound	IC50 [µM]
CN(c1ccccc1)c1nc(N)nc(-c2noc(C3CC(Oc4ccccc4)C3)n2)n1 (mixture of isomers) [Example 261, 2-N-Methyl-6-[5-(3-phenoxycyclobutyl)-1,2,4-oxadiazol-3-yl]-2-N-phenyl-1,3,5-triazine-2,4-diamine]	1.39
CN(c1ccccc1)c1nc(N)nc(-c2noc(-c3ccc(CN4CCOCC4)nc3)n2)n1 [Example 299, 2-N-methyl-6-{5-[6-(morpholin-4-ylmethyl)pyridin-3-yl]-1,2,4-oxadiazol-3-yl}-2-N-phenyl-1,3,5-triazine-2,4-diamine]	1.11
CCOc1cccnc1-c1nc(-c2nc(N)nc(N(C)c3ccccc3)n2)no1 [Example 480, 6-[5-(3-ethoxypyridin-2-yl)-1,2,4-oxadiazol-3-yl]-2-N-methyl-2-N-phenyl-1,3,5-triazine-2,4-diamine]	0.313
CN(c1ccccc1)c1nc(N)nc(-c2noc(-c3ccc(OC4CCOCC4)nc3)n2)n1 [Example 361, 2-N-methyl-6-{5-[6-(oxan-4-yloxy)pyridin-3-yl]-1,2,4-oxadiazol-3-yl}-2-N-phenyl-1,3,5-triazine-2,4-diamine]	0.273
CN(c1ccccc1)c1nc(N)nc(-c2noc([C@@H]3CCCN3C(=O)OC(C)(C)C)n2)n1 [Example 440, tert-butyl (2S)-2-(3-{4-amino-6-[methyl(phenyl)amino]-1,3,5-triazin-2-yl}-1,2,4-oxadiazol-5-yl)pyrrolidine-1-carboxylate]	1.3
CN(c1ccccc1)c1nc(N)nc(-c2noc(-c3ccnn3CC(F)(F)F)n2)n1 [Example 257, 2-N-methyl-2-N-phenyl-6-{5-[1 - (2,2,2-trifluoroethyl)-1H-pyrazol-5-yl]-1,2,4-oxadiazol-3-yl}-1,3,5-triazine-2,4-diamine]	3.25
CN1CCC(Oc2ccc(-c3nc(-c4nc(N)nc(N(C)c5ccccc5)n4)no3)cn2)C1 (stereo not drawn) [Example 364, 2-N-methyl-6-(5-{6-[(1-methylpyrrolidin-3-yl)oxy]pyridin-3-yl}-1,2,4-oxadiazol-3-yl)-2-N-phenyl-1,3,5-triazine-2,4-diamine]	1.61
CC(C)Oc1cccnc1-c1nc(-c2nc(N)nc(N(C)c3ccccc3)n2)no1 [Example 484, 2-N-methyl-2-N-phenyl-6-{5-[3-(propan-2-yloxy)pyridin-2-yl]-1,2,4-oxadiazol-3-yl}-1,3,5-triazine-2,4-diamine]	0.695
Nc1nc(Nc2ccc(F)c(F)c2)nc(-c2noc(-c3ccc(OCC(F)(F)F)nc3)n2)n1 [Example 416, 2-N-(3,4-difluorophenyl)-6-{5-[6-(2,2,2-trifluoroethoxy)pyridin-3-yl]-1,2,4-oxadiazol-3-yl}-1,3,5-triazine-2,4-diamine]	1.5
CN(c1ccccc1)c1nc(N)nc(-c2noc(C3CCC(NC(=O)CC(F)(F)F)CC3)n2)n1 (stereo not drawn) [Example 427, N-[4-(3-{4-amino-6-[methyl(phenyl)amino]-1,3,5-triazin-2-yl}-1,2,4-oxadiazol-5-yl)cyclohexyl]-3,3,3-trifluoropropanamide]	4.92

The next lines start with the values.

IC50 [µM]	Compound
0.884	Nc1nc(Nc2ccccc2)nc(-c2noc(N3C[C@@H]4[C@@H](COCC5CC5)[C@@H]4C3)n2)n1 [Example 393, 6-{5-[6-[(cyclopropylmethoxy)methyl]-3-azabicyclo[3.1.0]hexan-3-yl]-1,2,4-oxadiazol-3-yl}-2-N-phenyl-1,3,5-triazine-2,4-diamine]
6.5	NC(=O)c1nc(-c2nc(N)nc(Nc3cccc(F)c3)n2)no1 [Example 223, 3-{4-amino-6-[(3-fluorophenyl)amino]-1,3,5-triazin-2-yl}-1,2,4-oxadiazole-5-carboxamide]
0.664	Nc1nc(Nc2ccccc2)nc(-c2noc(N3C[C@@H]4[C@@H](COCCC(F)(F)F)[C@@H]4C3)n2)n1 [Example 394, 2-N-phenyl-6-{5-[6-[(3,3,3-trifluoropropoxy)methyl]-3-azabicyclo[3.1.0]hexan-3-yl]-1,2,4-oxadiazol-3-yl}-1,3,5-triazine-2,4-diamine]
> 5.37	CC(C)S(=O)(=O)N1CCN(c2nc(-c3nc(N)nc(N(C)c4ccccc4)n3)no2)CC1 [Example 504, 2-N-methyl-2-N-phenyl-6-{5-[4-(propane-2-sulfonyl)piperazin-1-yl]-1,2,4-oxadiazol-3-yl}-1,3,5-triazine-2,4-diamine]
0.386	Nc1nc(Nc2cccc(Cl)c2)nc(-c2noc(-c3ccccn3)n2)n1 [Example 265, 2-N-(3-chlorophenyl)-6-[5-(pyridin-2-yl)-1,2,4-oxadiazol-3-yl]-1,3,5-triazine-2,4-diamine]
9.36	Nc1nc(Nc2ccccc2)nc(-c2noc(N3CCC4(CC3)COC4)n2)n1 [Example 246, 6-(5-{2-oxa-7-azaspiro[3.5]nonan-7-yl}-1,2,4-oxadiazol-3-yl)-2-N-phenyl-1,3,5-triazine-2,4-diamine]
2.81	CN(c1ccccc1)c1nc(N)nc(-c2noc(C3CCC(O)CC3)n2)n1 (stereo not drawn) [Example 424, 4-(3-{4-amino-6-[methyl(phenyl)amino]-1,3,5-triazin-2-yl}-1,2,4-oxadiazol-5-yl)cyclohexan-1-ol]
5.99	CN(c1ccccc1)c1nc(N)nc(-c2noc(N3CCN(S(=O)(=O)CC(F)(F)F)CC3)n2)n1 [Example 389, 2-N-methyl-2-N-phenyl-6-(5-{4-[(2,2,2-trifluoroethane)sulfonyl]piperazin-1-yl}-1,2,4-oxadiazol-3-yl)-1,3,5-triazine-2,4-diamine]

Same assay, conditions: marker c: Automated patch clamp data; read-out: Nav 1.7 activity

Compound	IC50 [µM]
CN(c1nc(N)nc(-c2noc(-c3cccs3)n2)n1)c1ccccc1F [Example 90, N-(2-Fluoro-phenyl)-N-methyl-6-(5-thiophen-2-yl-[1,2,4]oxadiazol-3-yl)-[1,3,5]triazine-2,4-diamine]	0.415
CN(c1ccccc1)c1nc(N)nc(-c2noc(-c3cc4ccccc4o3)n2)n1 [Example 64, 6-(5-Benzofuran-2-yl-[1,2,4]oxadiazol-3-yl)-N-methyl-N-phenyl-[1,3,5]triazine-2,4-diamine]	1.93
Cc1ccc(-c2nc(-c3nc(N)nc(N(C)c4ccccc4)n3)no2)s1 [Example 62, N-Methyl-6-[5-(5-methyl-thiophen-2-yl)-[1,2,4]oxadiazol-3-yl]-N-phenyl-[1,3,5]triazine-2,4-diamine]	1.1
CN(c1cccc(F)c1)c1nc(N)nc(-c2noc(-c3cccs3)n2)n1 [Example 99, N-(3-Fluoro-phenyl)-N-methyl-6-(5-thiophen-2-yl-[1,2,4]oxadiazol-3-yl)-[1,3,5]triazine-2,4-diamine]	1.13
Cc1ccc(-c2nc(-c3nc(N)nc(N(C)c4ccccc4)n3)no2)s1 [Example 129, N-Methyl-6-[5-(5-methyl-thiophen-2-yl)-[1,2,4]oxadiazol-3-yl]-N-phenyl-[1,3,5]triazine-2,4-diamine]	2.54
COc1ccccc1-c1nc(-c2nc(N)nc(N(C)c3cccc(F)c3)n2)no1 [Example 98, N-(3-Fluoro-phenyl)-6-[5-(2-methoxy-phenyl)-[1,2,4]oxadiazol-3-yl]-N-methyl-[1,3,5]triazine-2,4-diamine]	0.318
Cc1ccc(-c2nc(-c3nc(N)nc(N(C)c4cccc(F)c4)n3)no2)o1 [Example 87, N-(3-Fluoro-phenyl)-N-methyl-6-[5-(5-methyl-furan-2-yl)-[1,2,4]oxadiazol-3-yl]-[1,3,5]triazine-2,4-diamine]	3.49
Cc1cc(-c2nc(-c3nc(N)nc(N(C)c4ccccc4)n3)no2)oc1C [Example 49, 6-[5-(4,5-Dimethyl-furan-2-yl)-[1,2,4]oxadiazol-3-yl]-N-methyl-N-phenyl-[1,3,5]triazine-2,4-diamine]	1.23
CCOc1ccccc1-c1nc(-c2nc(N)nc(N(C)c3cccc(C)c3)n2)no1 [Example 183, 6-[5-(2-ethoxyphenyl)-1,2,4-oxadiazol-3-yl]-2-N-methyl-2-N-(3-methylphenyl)-1,3,5-triazine-2,4-diamine]	0.067
Cc1ccc(-c2nc(-c3nc(N)nc(N(C)c4ccccc4)n3)no2)cc1 [Example 29, N-Methyl-N-phenyl-6-(5-p-tolyl-[1,2,4]oxadiazol-3-yl)-[1,3,5]triazine-2,4-diamine]	1.38

Continued, values first:

IC50 [µM]	Compound
0.369	Nc1nc(Nc2cc(F)ccc2F)nc(-c2noc(-c3ccco3)n2)n1 [Example 109, N-(2,5-Difluoro-phenyl)-6-(5-furan-2-yl-[1,2,4]oxadiazol-3-yl)-[1,3,5]triazine-2,4-diamine]
1.88	CCS(=O)(=O)N1CCC(c2nc(-c3nc(N)nc(N(C)c4ccccc4)n3)no2)CC1 [Example 170, 6-{5-[1-(ethanesulfonyl)piperidin-4-yl]-1,2,4-oxadiazol-3-yl}-2-N-methyl-2-N-phenyl-1,3,5-triazine-2,4-diamine]

From US8895733B2 (Novartis AG, priority 2010, dated 2014)
